Data set [1] is described as follows: Preclinical studies of immune-suppressive effects. The conditions noted are these: compared with the steroids. From the text:
Norketotifen is thus particularly useful in the treatment of diseases treatable with the TNFα blocking agents adalimumab (Humira®), infliximab (Remicade®, Inflectra®), certolizumab pegol (Cimzia®), golimumab (Simponi®) and enteracept (Enbrel®); the IL-4 and IL-13 inhibitors dupilumab (Dupixent®), pascolizumab, pitrakinra, and lebrikizumab, anrukinzumab, and tralokinumab; and the IL-5 inhibitors mepolizumab, reslizumab and benralizumab. Advantageously, norketotifen is a small molecule and oral and parenteral administration of norketotifen can provide for convenience and significant cost savings.

In data set [2] the test system is human white blood cells. Briefly: Induced cytokine release from stimulated human white blood cells (overall conclusion). Type of data set: cell-based. The conditions noted are these: PHA 5 μg/ml, 16 hours; conclusion in words. The procedure: The objective of this study was to assess the ability of norketotifen to inhibit induced cytokine release from stimulated human white blood cells.
The study was conducted in two phases. The first phase included optimization of the test methodology and including dose-range finding studies, using buffy coats from 3 human donors, stimulated with phytohemagglutinin (PHA). Following optimization of the test conditions, a final protocol was issued. In the following Main Study, white blood cells (buffy coats) from 5 healthy human donors were stimulated with PHA, 5 μg/ml. The concentrations of the test article and the duration of exposure were optimized to obtain acceptable dose-response ratios. Thus, the inhibitory effects of three concentrations of NK and one concentration of ketotifen were evaluated in the Main Study. The buffy coats containing white blood cells from 5 male human donors were resuspended in assay media and were pre-incubated for 30 min with either vehicle/saline, ketotifen 10 μM ([…]) or norketotifen 1 μM and 10 μM and 100 μM, corresponding to 0.411 μg/ml, 4.11 μg/ml and 41.1 μg/ml, resp. Following these preincubations, the white blood cells were stimulated for 16 hours with PHA, 5 μg/ml. The cell system supernatants were then harvested and stored frozen pending analyses. […]

The subject of data set [3] is mouse. As to conditions: mouse model of sedation; U.S. Pat. Nos. 7,226,934 and 7,557,128; cited from earlier work.

Turning to `O=C1Cc2ccccc2C(=C2CCNCC2)c2ccsc21` (racemic) [Norketotifen, norketotifen], the Adverse immune-suppressive effects entry in data set [1] was “free from the adverse immune-suppressive effects”. Also, the “Inhibition of the release of cytokines from human white blood cells” value in data set [2] was “potently and dose-dependently inhibited”.

On to `CN1CCC(=C2c3ccccc3CC(=O)c3sccc32)CC1` [Ketotifen, ketotifen, reference compound], for which the “Inhibition of the release of cytokines from human white blood cells” value in data set [2] is listed as “No statistically significant inhibition”.

`O=C(O)/C=C/C(=O)O.O=C1Cc2ccccc2C(=C2CCNCC2)c2ccsc21` [R-isomer, R-norketotifen]: the Sedative effects entry in data set [3] is “sedative effects were attributed to the R-isomer”.

(Values after patent US20210267960A1, “METHODS OF TREATMENT OF INFLAMMATORY CYTOKINE-RELATED ARTHRITIC DISORDERS” (Bridge Pharma Inc., priority 2020, published 2021).)
